Source: US10208019B2, “GLP-1 receptor agonists and uses thereof” (Pfizer Inc., priority 2016, dated 2019)

What was measured:
[1] = target: human GLP-1R (Homo sapiens (Human), UniProt P43220, L260F); assay: CHO GLP-1R Clone C6—Assay 2: HTRF cAMP cell-based functional agonist assay (low GLP-1R density)
[2] = target: human GLP-1R (Homo sapiens, UniProt P43220, G168S); assay: CHO GLP-1R Clone H6—Assay 1: HTRF cAMP cell-based functional agonist assay (high GLP-1R density); conditions: for EC50: read-out: Assay 1 EC50, CHO GLP-1R Clone H6, cAMP HTRF, geometric mean; for Emax: read-out: Assay 1 Emax (%), CHO GLP-1R Clone H6
[3] = relative to saturating concentration of full agonist GLP-1 (1 μM), arithmetic mean

human GLP-1R (Homo sapiens, UniProt P43220, G168S), sequence (P43220 24-463 G168S limits assumed): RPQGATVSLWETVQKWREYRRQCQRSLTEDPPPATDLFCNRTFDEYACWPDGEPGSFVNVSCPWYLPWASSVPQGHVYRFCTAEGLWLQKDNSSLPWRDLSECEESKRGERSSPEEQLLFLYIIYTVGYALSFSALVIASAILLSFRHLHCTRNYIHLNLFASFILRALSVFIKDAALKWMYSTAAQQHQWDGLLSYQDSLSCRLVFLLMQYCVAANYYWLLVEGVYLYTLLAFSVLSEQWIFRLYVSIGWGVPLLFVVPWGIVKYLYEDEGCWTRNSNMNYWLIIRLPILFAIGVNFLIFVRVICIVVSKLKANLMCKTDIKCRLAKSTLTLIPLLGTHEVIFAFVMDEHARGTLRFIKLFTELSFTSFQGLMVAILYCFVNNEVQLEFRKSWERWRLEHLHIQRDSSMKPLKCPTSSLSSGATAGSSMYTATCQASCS
human GLP-1R (Homo sapiens (Human), UniProt P43220, L260F), sequence (P43220 24-463 L260F): as the sequence (P43220 24-463 G168S limits assumed) above, with S145G, L237F counted along it

With COCCn1c(CN2CC[C@@H](c3cccc(OCc4ccc(Cl)cc4F)n3)[C@H](F)C2)nc2ccc(C(=O)O)cc21 (racemic) [Example 1A-22, rac 2-{[(3S,4S)-4-{6-[(4-chloro-2-fluorobenzyl)oxy]pyridin-2-yl}-3-fluoropiperidin-1-yl]methyl}-1-(2-methoxyethyl)-1H-benzimidazole-6-carboxylic acid] the EC50 ([1]; CHO GLP-1R Clone C6, cAMP HTRF, geometric mean) was 0.4 µM, the “Assay 2 Emax (%)” value ([1]; CHO GLP-1R Clone C6, relative to saturating concentration of full agonist GLP-1 (1 μM), arithmetic mean) was 86% and the “Assay 1 Emax (%)” value ([2]; CHO GLP-1R Clone H6, relative to saturating concentration of full agonist GLP-1 (1 μM), arithmetic mean) was 78%. It also gave an EC50 [2] of 0.036 µM.
An EC50 [2] of 1.1 µM and an Emax [2, 3] of 65% were found for Cc1cc(C)n(CCn2c(CN3CCC(c4cccc(OCc5ccc(Cl)cc5F)n4)CC3)nc3ccc(C(=O)O)cc32)n1 [Example 11A-57, 2-[(4-{6-[(4-chloro-2-fluorobenzyl)oxy]pyridin-2-yl}piperidin-1-yl)methyl]-1-[2-(3,5-dimethyl-1H-pyrazol-1-yl)ethyl]-1H-benzimidazole-6-carboxylic acid] in this work.
An EC50 [2] of 1.1 µM and an Emax [2, 3] of 81% were found for Cc1cc(Cn2c(CN3CCC(c4cccc(OCc5ccc(Cl)cc5F)n4)CC3)nc3ccc(C(=O)O)cc32)[nH]n1 [Example 11A-58, 2-[(4-{6-[(4-chloro-2-fluorobenzyl)oxy]pyridin-2-yl}piperidin-1-yl)methyl]-1-[(3-methyl-1H-pyrazol-5-yl)methyl]-1H-benzimidazole-6-carboxylic acid] in this work.
An EC50 [2] of 1.4 µM and an Emax [2, 3] of 97% were found for Cc1n[nH]c(Cn2c(CN3CCC(c4cccc(OCc5ccc(Cl)cc5F)n4)CC3)nc3ccc(C(=O)O)cc32)n1 [Example 11A-59, 2-[(4-{6-[(4-chloro-2-fluorobenzyl)oxy]pyridin-2-yl}piperidin-1-yl)methyl]-1-[(3-methyl-1H-1,2,4-triazol-5-yl)methyl]-1H-benzimidazole-6-carboxylic acid] in this work.
An EC50 [2] of 1.6 µM and an Emax [2, 3] of 80% were found for CC(c1cnn(C)n1)n1c(CN2CCC(c3cccc(OCc4ccc(Cl)cc4F)n3)CC2)nc2ccc(C(=O)O)cc21 (stereo not drawn) [Example 11A-60, 2-[(4-{6-[(4-chloro-2-fluorobenzyl)oxy]pyridin-2-yl}piperidin-1-yl)methyl]-1-[1-(2-methyl-2H-1,2,3-triazol-4-yl)ethyl]-1H-benzimidazole-6-carboxylic acid] in this work.
An EC50 [2] of 1.9 µM and an Emax [2, 3] of 79% were found for Cc1ccc(Cn2c(CN3CCC(c4cccc(OCc5ccc(Cl)cc5F)n4)CC3)nc3ccc(C(=O)O)cc32)cn1 [Example 11A-61, 2-[(4-{6-[(4-chloro-2-fluorobenzyl)oxy]pyridin-2-yl}piperidin-1-yl)methyl]-1-[(6-methylpyridin-3-yl)methyl]-1H-benzimidazole-6-carboxylic acid] in this work.
An EC50 [2] of 2.2 µM and an Emax [2, 3] of 87% were found for COCc1cc(Cn2c(CN3CCC(c4cccc(OCc5ccc(Cl)cc5F)n4)CC3)nc3ccc(C(=O)O)cc32)[nH]n1 [Example 11A-62, 2-[(4-{6-[(4-chloro-2-fluorobenzyl)oxy]pyridin-2-yl}piperidin-1-yl)methyl]-1-{[3-(methoxymethyl)-1H-pyrazol-5-yl]methyl}-1H-benzimidazole-6-carboxylic acid] in this work.
An EC50 [2] of 2.5 µM and an Emax [2, 3] of 71% were found for CN1CCOC(Cn2c(CN3CCC(c4cccc(OCc5ccc(Cl)cc5F)n4)CC3)nc3ccc(C(=O)O)cc32)C1 (stereo not drawn) [Example 11A-63, 2-[(4-{6-[(4-chloro-2-fluorobenzyl)oxy]pyridin-2-yl}piperidin-1-yl)methyl]-1-[(4-methylmorpholin-2-yl)methyl]-1H-benzimidazole-6-carboxylic acid] in this work.
An EC50 [2] of 2.9 µM and an Emax [2, 3] of 88% were found for O=C(O)c1ccc2nc(CN3CCC(c4cccc(OCc5ccc(Cl)cc5F)n4)CC3)n(Cc3n[nH]c(C4CC4)n3)c2c1 [Example 11A-64, 2-[(4-{6-[(4-chloro-2-fluorobenzyl)oxy]pyridin-2-yl}piperidin-1-yl)methyl]-1-[(5-cyclopropyl-1H-1,2,4-triazol-3-yl)methyl]-1H-benzimidazole-6-carboxylic acid] in this work.
An EC50 [2] of 3.1 µM and an Emax [2, 3] of 51% were found for O=C(O)c1ccc2nc(CN3CCC(c4cccc(OCc5ccc(Cl)cc5F)n4)CC3)n(CCC3CCOCC3)c2c1 [Example 11A-65, 2-[(4-{6-[(4-chloro-2-fluorobenzyl)oxy]pyridin-2-yl}piperidin-1-yl)methyl]-1-[2-(tetrahydro-2H-pyran-4-yl)ethyl]-1H-benzimidazole-6-carboxylic acid] in this work.
An EC50 [2] of 4 µM and an Emax [2, 3] of 91% were found for Cc1n[nH]c(CCn2c(CN3CCC(c4cccc(OCc5ccc(Cl)cc5F)n4)CC3)nc3ccc(C(=O)O)cc32)n1 [Example 11A-66, 2-[(4-{6-[(4-chloro-2-fluorobenzyl)oxy]pyridin-2-yl}piperidin-1-yl)methyl]-1-[2-(3-methyl-1H-1,2,4-triazol-5-yl)ethyl]-1H-benzimidazole-6-carboxylic acid] in this work.
An EC50 [2] of 9.3 µM and an Emax [2, 3] of 100% were found for Cc1nc(C(C)n2c(CN3CCC(c4cccc(OCc5ccc(Cl)cc5F)n4)CC3)nc3ccc(C(=O)O)cc32)n[nH]1 (stereo not drawn) [Example 11A-67, 2-[(4-{6-[(4-chloro-2-fluorobenzyl)oxy]pyridin-2-yl}piperidin-1-yl)methyl]-1-[1-(5-methyl-1H-1,2,4-triazol-3-yl)ethyl]-1H-benzimidazole-6-carboxylic acid] in this work.
An EC50 [2] of 0.56 µM and an Emax [2, 3] of 72% were found for COCC1(Cn2c(CN3CCC(c4cccc(OCc5ccc(Cl)cc5F)n4)CC3)nc3ccc(C(=O)O)cc32)CCC1 [Example 11A-74, 2-[(4-{6-[(4-chloro-2-fluorobenzyl)oxy]pyridin-2-yl}piperidin-1-yl)methyl]-1-{[1-(methoxymethyl)cyclobutyl]methyl}-1H-benzimidazole-6-carboxylic acid] in this work.
An EC50 [2] of 0.6 µM and an Emax [2, 3] of 70% were found for COCCn1c(CN2CCN(c3cccc(OCc4ccc(Cl)cc4F)n3)CC23CC3)nc2ccc(C(=O)O)cc21 [Example 12A-03, 2-[(7-{6-[(4-chloro-2-fluorobenzyl)oxy]pyridin-2-yl}-4,7-diazaspiro[2.5]oct-4-yl)methyl]-1-(2-methoxyethyl)-1H-benzimidazole-6-carboxylic acid] in this work.
An EC50 [2] of 0.25 µM and an Emax [2, 3] of 64% were found for COCCn1c(CN2CCN(c3cccc(OCc4ccc(Cl)cc4F)n3)C[C@@H]2C2CC2)nc2ccc(C(=O)O)cc21 [Example 12A-04, 2-{[(2S)-4-{6-[(4-chloro-2-fluorobenzyl)oxy]pyridin-2-yl}-2-cyclopropylpiperazin-1-yl]methyl}-1-(2-methoxyethyl)-1H-benzimidazole-6-carboxylic acid] in this work.
An EC50 [2] of 1.3 µM and an Emax [2, 3] of 42% were found for COCCn1c(CN2CCN(c3cccc(OCc4ccc(Cl)cc4F)n3)C[C@@H]2C(C)C)nc2ccc(C(=O)O)cc21 [Example 12A-05, 2-{[(2S)-4-{6-[(4-chloro-2-fluorobenzyl)oxy]pyridin-2-yl}-2-(propan-2-yl)piperazin-1-yl]methyl}-1-(2-methoxyethyl)-1H-benzimidazole-6-carboxylic acid] in this work.
An EC50 [2] of 0.51 µM and an Emax [2, 3] of 64% were found for COCCn1c(CN2CCN(c3cccc(OCc4ccc(Cl)cc4F)n3)CC2(C)C)nc2ccc(C(=O)O)cc21 [Example 12A-06, 2-[(4-{6-[(4-chloro-2-fluorobenzyl)oxy]pyridin-2-yl}-2,2-dimethylpiperazin-1-yl)methyl]-1-(2-methoxyethyl)-1H-benzimidazole-6-carboxylic acid] in this work.
